We go through twelve molecules from patent US20250051344A1, “BIFUNCTIONAL SELECTIVE DEGRADERS OF SMARCA2 AND THERAPEUTIC USES THEREOF” (Nurix Therapeutics, Inc., priority 2023, published 2025).

Assay [1] concerns the target T1, SMARCA2 (Homo sapiens, UniProt P51531).
T1 construct: endogenous in cells
Put plainly: SMARCA2 Cellular Degradation Assay (Western blot analysis on Jess platform). Format: cell-based. As to conditions: for Dmax / DC50: cellular degradation; for Fold Selectivity SMARCA4/2: ratio DC50 SMARCA4 / DC50 SMARCA2. How it is done:
SMARCA2 Cellular Degradation Assay
Western Blot Analysis for SMARCA2 Degradation
Frozen cell pellets were thawed on ice and resuspended in RIPA lysis buffer (Millipore, Cat. No. 20-188) supplemented with 0.2% SDS (Fisher Scientific, Cat. No. 24730020), 200 mM β-glycerophosphate (Alfa Aesar, Cat. No. J62121), 500 mM NaF (Rigaku, Cat. No. 1008046), protease inhibitor (1 tablet per 10 mL, Sigma, Cat. No. 11836170001), 250 U/μL benzonase (Millipore, Cat. No. 71206), 200 mM sodium orthovanadate (FivePhoton, Cat. No. ActVO-4), and 100 mM PMSF (Sigma, Cat. No. 10837091001). 50 μL lysis buffer was used to lyse each pellet containing 5×10E5-1×10E6 live cells extracted from tumors. Lysates were centrifuged for 10 mins at 20,817×g and lysate supernatants were saved for further analysis. Protein levels were determined by the BCA Assay performed according to manufacturer's protocol (EMD Millipore, Cat. No. 71285-3). Samples were evaluated by Western blot analysis on the Jess Platform (ProteinSimple). Lysates were diluted with complete lysis buffer (as described above) and 5 μg of total proteins were loaded onto each capillary. Samples were prepared using the ProteinSimple EZ Standard Pack 1 (Cat. No. PS-ST01EZ-8; containing tubes with powdered (5×) Fluorescent Master Mix, DTT, and biotinylated ladder) and run using the ProteinSimple 25-Capillary Cartridge kit (Cat. No. SM-W004; containing 25-capillary cartridge Wash reagent, and 10× Sample Buffer reagent), the ProteinSimple Anti-Rabbit HRP Detection Module for Jess (Cat. No. DM-001; containing Antibody Diluent, anti-rabbit secondary antibody, Luminol-S, Peroxide, and Streptavidin-HRP), and the ProteinSimple Anti-Mouse NIR Detection Module for Jess (Cat. No. DM-009; containing Antibody Diluent, anti-mouse NIR secondary antibody, and Streptavidin-NIR) as the following describes. The DTT was reconstituted with 40 μL water to make a 400 mM solution, 20 μL of the DTT solution plus 20 μL of 10× Sample Buffer were added to reconstitute the 5× Fluorescent Master Mix, and 20 μL of H2O was used to reconstitute the biotinylated ladder. For each sample, lysate (4 μL) was combined with 5× Fluorescent Master Mix (1 μL) and heated at 95° C. for 5 minutes. Samples were cooled and stored on ice. Primary antibody solution was made using anti-SMARCA2 antibody (Abcam, Cat. No. 240648, 1:10) and anti-beta-Actin antibody (Cell Signaling Technology, Cat. No. 3700S, 1:25) in antibody diluent. The 25-capillary cartridges were prepared per standard ProteinSimple protocol with each sample in a column. For the biotinylated ladder in column 1, the following were added: 5 µL of ladder sample in Row A, 10 μL of antibody diluent in Rows B and C, 10 μL of Streptavidin-NIR in Row D, and 15 μL of a 50:50 Luminol-s/Peroxide solution in Row E. For each test sample (columns 2-25), the following were added per column: 5 μL of sample in Row A, 10 μL of antibody diluent in Row B, 10 μL of primary antibody solution in Row C, 10 μL of secondary antibody in Row D, and 15 μL of a 50:50 Luminol-S/Peroxide solution in Row E. 500 μL wash buffer was added to the wash buffer wells in the cartridge and cartridge was spun at 1000×g for 5 minutes prior to loading into the Jess. Samples were run using the Chemiluminescence and Fluorescence immunoassays in the ProteinSimple Compass for SimpleWestern program (version 5.0.0). After running, SMARCA2, actin, and background curves were identified in the Compass software; note that in the Compass software, the electropherograms are also visualized as bands for comparison with standard Western blot outputs. The electropherogram area reading for each sample curve was normalized to that of the corresponding actin curve per column following background (capillary background) subtraction using the following equation: […]
Following normalization, the percentage of SMARCA2 remaining per sample relative to the vehicle control was calculated as follows: […]
(In general: In western blotting, separated proteins are transferred to a membrane and probed.)

Assay [2] concerns the target T2, SMARCA4 (Homo sapiens, UniProt P51532).
T2 construct: endogenous in cells
Nature of the assay: Cellular degradation assay, SMARCA4 (Table 1). Format: cell-based.

T2 sequence (P51532 whole entry, species assumed): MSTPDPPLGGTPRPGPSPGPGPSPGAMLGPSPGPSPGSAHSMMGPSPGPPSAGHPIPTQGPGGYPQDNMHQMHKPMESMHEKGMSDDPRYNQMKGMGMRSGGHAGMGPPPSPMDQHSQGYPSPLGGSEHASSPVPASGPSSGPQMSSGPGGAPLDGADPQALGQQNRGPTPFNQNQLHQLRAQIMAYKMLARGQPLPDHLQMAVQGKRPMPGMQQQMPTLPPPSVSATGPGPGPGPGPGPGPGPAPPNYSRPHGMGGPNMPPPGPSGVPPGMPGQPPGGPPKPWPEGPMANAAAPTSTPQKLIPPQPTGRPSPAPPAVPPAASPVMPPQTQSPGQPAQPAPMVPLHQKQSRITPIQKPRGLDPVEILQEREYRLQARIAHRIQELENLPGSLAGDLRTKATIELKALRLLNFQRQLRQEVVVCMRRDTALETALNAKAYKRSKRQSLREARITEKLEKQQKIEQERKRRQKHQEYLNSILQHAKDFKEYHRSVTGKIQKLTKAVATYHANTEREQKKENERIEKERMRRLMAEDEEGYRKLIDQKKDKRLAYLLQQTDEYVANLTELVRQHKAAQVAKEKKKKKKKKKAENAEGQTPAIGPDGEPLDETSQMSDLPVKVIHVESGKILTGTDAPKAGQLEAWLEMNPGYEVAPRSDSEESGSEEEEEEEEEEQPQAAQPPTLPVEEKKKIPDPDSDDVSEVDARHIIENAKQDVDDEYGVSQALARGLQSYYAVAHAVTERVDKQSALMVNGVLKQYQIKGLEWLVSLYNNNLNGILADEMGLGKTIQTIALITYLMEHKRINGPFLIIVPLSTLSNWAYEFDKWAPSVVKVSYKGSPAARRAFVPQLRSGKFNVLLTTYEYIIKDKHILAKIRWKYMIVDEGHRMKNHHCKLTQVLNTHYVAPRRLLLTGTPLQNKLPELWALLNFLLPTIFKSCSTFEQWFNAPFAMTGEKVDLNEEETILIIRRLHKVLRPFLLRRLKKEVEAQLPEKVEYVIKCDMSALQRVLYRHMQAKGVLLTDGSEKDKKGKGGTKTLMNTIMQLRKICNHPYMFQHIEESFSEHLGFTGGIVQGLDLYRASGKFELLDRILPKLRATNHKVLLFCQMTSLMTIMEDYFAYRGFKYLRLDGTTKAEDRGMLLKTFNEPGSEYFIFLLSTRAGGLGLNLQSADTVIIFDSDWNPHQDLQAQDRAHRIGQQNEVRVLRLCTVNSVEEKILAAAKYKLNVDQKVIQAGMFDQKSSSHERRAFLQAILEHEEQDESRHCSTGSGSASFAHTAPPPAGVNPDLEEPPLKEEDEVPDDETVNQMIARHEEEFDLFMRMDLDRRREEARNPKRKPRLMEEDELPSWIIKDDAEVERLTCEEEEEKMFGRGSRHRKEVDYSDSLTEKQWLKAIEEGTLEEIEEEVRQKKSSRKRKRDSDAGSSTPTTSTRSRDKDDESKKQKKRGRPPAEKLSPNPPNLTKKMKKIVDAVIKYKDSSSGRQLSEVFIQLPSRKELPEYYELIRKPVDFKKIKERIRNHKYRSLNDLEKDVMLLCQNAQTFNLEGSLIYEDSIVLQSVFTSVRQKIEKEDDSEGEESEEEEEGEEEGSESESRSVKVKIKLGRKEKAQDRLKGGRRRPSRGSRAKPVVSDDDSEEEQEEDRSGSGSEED
T1 sequence (P51531 whole entry, species assumed): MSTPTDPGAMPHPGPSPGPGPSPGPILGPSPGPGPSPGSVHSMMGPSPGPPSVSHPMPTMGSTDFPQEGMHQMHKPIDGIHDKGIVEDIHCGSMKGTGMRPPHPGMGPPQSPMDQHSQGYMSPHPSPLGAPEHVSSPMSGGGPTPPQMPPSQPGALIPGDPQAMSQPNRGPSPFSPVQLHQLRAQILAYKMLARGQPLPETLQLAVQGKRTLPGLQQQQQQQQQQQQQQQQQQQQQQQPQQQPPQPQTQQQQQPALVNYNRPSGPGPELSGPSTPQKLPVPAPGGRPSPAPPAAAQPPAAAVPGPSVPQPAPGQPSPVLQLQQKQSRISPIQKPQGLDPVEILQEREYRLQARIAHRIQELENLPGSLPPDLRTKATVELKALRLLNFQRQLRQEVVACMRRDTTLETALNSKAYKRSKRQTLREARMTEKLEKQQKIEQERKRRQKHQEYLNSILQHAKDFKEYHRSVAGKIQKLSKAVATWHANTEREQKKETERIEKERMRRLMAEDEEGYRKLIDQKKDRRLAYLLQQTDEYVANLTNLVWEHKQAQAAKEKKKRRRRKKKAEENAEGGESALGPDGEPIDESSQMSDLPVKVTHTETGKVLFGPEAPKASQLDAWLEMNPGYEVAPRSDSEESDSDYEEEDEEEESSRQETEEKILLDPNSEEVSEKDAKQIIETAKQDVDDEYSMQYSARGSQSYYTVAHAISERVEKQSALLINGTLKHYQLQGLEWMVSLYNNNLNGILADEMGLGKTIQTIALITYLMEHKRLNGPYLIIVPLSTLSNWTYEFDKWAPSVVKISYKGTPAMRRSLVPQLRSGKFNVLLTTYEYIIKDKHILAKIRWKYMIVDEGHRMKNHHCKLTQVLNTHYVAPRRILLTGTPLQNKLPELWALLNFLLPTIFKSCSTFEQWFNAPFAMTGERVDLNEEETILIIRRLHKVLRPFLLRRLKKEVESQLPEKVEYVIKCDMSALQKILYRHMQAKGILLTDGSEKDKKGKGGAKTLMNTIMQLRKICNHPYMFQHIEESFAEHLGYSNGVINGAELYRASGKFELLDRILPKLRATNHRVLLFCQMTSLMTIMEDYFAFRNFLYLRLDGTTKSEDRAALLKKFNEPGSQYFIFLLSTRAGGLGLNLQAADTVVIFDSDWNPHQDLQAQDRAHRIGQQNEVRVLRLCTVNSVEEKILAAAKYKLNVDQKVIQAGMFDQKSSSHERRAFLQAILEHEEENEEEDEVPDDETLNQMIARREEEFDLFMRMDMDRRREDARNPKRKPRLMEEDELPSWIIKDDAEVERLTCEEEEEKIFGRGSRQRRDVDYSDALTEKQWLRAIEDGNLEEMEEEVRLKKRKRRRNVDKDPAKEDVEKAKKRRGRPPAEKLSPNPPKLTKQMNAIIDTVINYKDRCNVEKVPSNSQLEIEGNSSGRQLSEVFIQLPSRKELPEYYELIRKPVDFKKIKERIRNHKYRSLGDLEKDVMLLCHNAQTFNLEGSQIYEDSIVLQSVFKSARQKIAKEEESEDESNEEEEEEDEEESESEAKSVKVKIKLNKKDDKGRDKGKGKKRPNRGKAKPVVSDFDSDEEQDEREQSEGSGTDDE

The Dmax is the greatest extent of degradation seen. A higher Dmax goes with a fuller loss of target. Turning to `O=C1CC[C@H](c2ccc(N3CCC(CN4CC5CCN(C(=O)C6(c7ccccc7)CCN(c7cnnc(-c8ccccc8O)c7)CC6)CC54)CC3)cc2)C(=O)N1` (stereo partly drawn) [Example 38, (3R)-3-(4-{4-[(3-{1-[6-(2-hydroxyphenyl)pyridazin-4-yl]-4-phenylpiperidine-4-carbonyl}-3,8-diazabicyclo[4.2.0]octan-8-yl)methyl]piperidin-1-yl}phenyl)piperidine-2,6-dione], in assay [1], the Dmax stood at 44.8% and the “Fold Selectivity SMARCA4/2” value is given as 1. The Dmax in assay [2] was 3.22%.
The term DC50 denotes the concentration giving 50% degradation. As to `O=C1CCC(c2ccc(N3CCC(F)(CCN4CC5(C4)CN(C(=O)C4(c6ccccc6)CCN(c6cnnc(-c7ccccc7O)c6)CC4)C5)CC3)cc2)C(=O)N1` (racemic) [Example 122, rac-(3R)-3-(4-{4-fluoro-4-[2-(6-{1-[6-(2-hydroxyphenyl)pyridazin-4-yl]-4-phenylpiperidine-4-carbonyl}-2,6-diazaspiro[3.3]heptan-2-yl)ethyl]piperidin-1-yl}phenyl)piperidine-2,6-dione], in assay [1], the DC50 is 9.13 nM, the Dmax was 73.6% and the “Fold Selectivity SMARCA4/2” value was 1095. Also, the Dmax in assay [2] came to 34.8%.
Take `O=C1CC[C@@H](c2ccc(N3CCC(CN4CC5(C4)CN(C(=O)C4(c6ccccc6)CCN(c6cnnc(-c7ccccc7O)c6)CC4)C5)CC3)cc2)C(=O)N1` [Example 8, (3S)-3-(4-{4-[(6-{1-[6-(2-hydroxyphenyl)pyridazin-4-yl]-4-phenylpiperidine-4-carbonyl}-2,6-diazaspiro[3.3]heptan-2-yl)methyl]piperidin-1-yl}phenyl)piperidine-2,6-dione]: in assay [1], it took 41.4 nM to reach half-maximal degradation (DC50), the Dmax worked out at 75.1% and the “Fold Selectivity SMARCA4/2” value is 241.66. The molecule further showed a Dmax in assay [2] of 44.6%.
For `O=C1CC[C@H](c2ccc(N3CCC(CN4CC[C@H]5[C@H](CCN5C(=O)C5(c6ccccc6)CCN(c6cnnc(-c7ccccc7O)c6)CC5)C4)CC3)cc2)C(=O)N1` (mixture of isomers) [Example 155, (3R)-3-[4-(4-{[(3aRS,7aSR)-1-{1-[6-(2-hydroxyphenyl)pyridazin-4-yl]-4-phenylpiperidine-4-carbonyl}-octahydro-1H-pyrrolo[3,2-c]pyridin-5-yl]methyl}piperidin-1-yl)phenyl]piperidine-2,6-dione], in that order: 13.7 nM, 75%, 730 and 51.5%.
Consider `O=C1CC[C@H](c2ccc(N3CCC(CN4CC5CCCC(C4)N(C(=O)C4(c6ccccc6)CCN(c6cnnc(-c7ccccc7O)c6)CC4)C5)CC3)cc2)C(=O)N1` (stereo partly drawn) [Example 45, (3R)-3-(4-{4-[(9-{1-[6-(2-hydroxyphenyl)pyridazin-4-yl]-4-phenylpiperidine-4-carbonyl}-3,9-diazabicyclo[3.3.2]decan-3-yl)methyl]piperidin-1-yl}phenyl)piperidine-2,6-dione], for which, in assay [1], the Dmax is 29.5% and the “Fold Selectivity SMARCA4/2” value came to 1. Besides, the maximal degradation (Dmax) in assay [2] came to 9.72%.
In the case of `Cc1ccnn1C1(C(=O)N(C)C2CCN(C3COC4(CCN(c5ccc([C@H]6CCC(=O)NC6=O)cc5)CC4)C3)CC2)CCN(c2cnnc(-c3ccccc3O)c2)CC1` (mixture of isomers) [Example 63, N-{1-[(3RS)-8-{4-[(3R)-2,6-dioxopiperidin-3-yl]phenyl}-1-oxa-8-azaspiro[4.5]decan-3-yl]piperidin-4-yl}-1-[6-(2-hydroxyphenyl)pyridazin-4-yl]-n-methyl-4-(5-methyl-1H-pyrazol-1-yl)piperidine-4-carboxamide], in assay [1], half-maximal degradation (DC50) was put at 8.77 nM, the Dmax was 80.5% and the “Fold Selectivity SMARCA4/2” value is on record as 1140. This molecule displayed a Dmax in assay [2] of 32.2%.
For `O=C1CCC(c2ccc(N3CCC(CCN4CC5(C4)CN(C(=O)C4(OC6CCCCC6)CCN(c6cnnc(-c7ccccc7O)c6)CC4)C5)CC3)cc2)C(=O)N1` (racemic) [Example 121, rac-3-(4-(4-(2-(6-(4-(cyclohexyloxy)-1-(6-(2-hydroxyphenyl)pyridazin-4-yl)piperidine-4-carbonyl)-2,6-diazaspiro[3.3]heptan-2-yl)ethyl)piperidin-1-yl)phenyl)piperidine-2,6-dione], in that order: 14.9 nM, 74.3%, 671 and 29.3%.
For `CC1(C)CC(NC(=O)C2(c3ccccc3)CCN(c3cnnc(-c4ccccc4O)c3)CC2)CCN1CC1CCN(c2ccc([C@H]3CCC(=O)NC3=O)cc2)CC1` (stereo partly drawn) [Example 183, N-{1-[(1-{4-[(3R)-2,6-dioxopiperidin-3-yl]phenyl}piperidin-4-yl)methyl]-2,2-dimethylpiperidin-4-yl}-1-[6-(2-hydroxyphenyl)pyridazin-4-yl]-4-phenylpiperidine-4-carboxamide], in assay [1], half-maximal degradation (DC50) was put at 6.43 nM, the Dmax came out at 80.7% and the “Fold Selectivity SMARCA4/2” value was determined as 39. Also, in assay [2], half-maximal degradation (DC50) was put at 249 nM and the Dmax was determined as 56.2%.
With `CN(C(=O)C1(c2ccncc2)CCN(c2cnnc(-c3ccccc3O)c2)CC1)C1CCN(CCC2CCN(c3ccc([C@H]4CCC(=O)NC4=O)cc3)CC2)CC1` [Example 140, N-{1-[2-(1-{4-[(3R)-2,6-dioxopiperidin-3-yl]phenyl}piperidin-4-yl)ethyl]piperidin-4-yl}-1-[6-(2-hydroxyphenyl)pyridazin-4-yl]-N-methyl-4-(pyridin-4-yl)piperidine-4-carboxamide], in assay [1], the DC50 was determined as 3.79 nM, the Dmax is 86.9% and the “Fold Selectivity SMARCA4/2” value came to 2641. This molecule also gave a Dmax in assay [2] of 31.2%.
`O=C1CC[C@H](c2ccc(N3CCC(CN4CC5(C4)CN(C(=O)C4(c6ccccc6)CCN(c6cnnc(-c7ccccc7O)c6)CC4)C5)CC3)cc2)C(=O)N1` [Example 15, (3R)-3-(4-{4-[(6-{1-[6-(2-hydroxyphenyl)pyridazin-4-yl]-4-phenylpiperidine-4-carbonyl}-2,6-diazaspiro[3.3]heptan-2-yl)methyl]piperidin-1-yl}phenyl)piperidine-2,6-dione]: in assay [1], half-maximal degradation (DC50) was put at 14.8 nM, the Dmax was 79.9% and the “Fold Selectivity SMARCA4/2” value amounted to 340.31. In assay [2], this molecule showed a DC50 of 5030 nM and a Dmax of 49.3%.
For `CN(C(=O)C1(c2ccccc2)CCN(c2cnnc(-c3ccccc3O)c2)CC1)C1CCN(CCC2CCN(c3ccc(C4CCC(=O)NC4=O)cn3)CC2)CC1` (racemic) [Example 69, rac-N-(1-(2-(1-(5-(2,6-dioxopiperidin-3-yl)pyridin-2-yl)piperidin-4-yl)ethyl)piperidin-4-yl)-1-(6-(2-hydroxyphenyl)pyridazin-4-yl)-N-methyl-4-phenylpiperidine-4-carboxamide], in assay [1], the DC50 was found to be 6.23 nM, the Dmax stood at 85.3% and the “Fold Selectivity SMARCA4/2” value amounted to 1605. The Dmax in assay [2] was found to be 44.1%.
As to `O=C1CC[C@H](c2ccc(N3CCC(CN4CCC5CN(C(=O)C6(c7ccccc7)CCN(c7cnnc(-c8ccccc8O)c7)CC6)C5C4)CC3)cc2)C(=O)N1` (stereo partly drawn) [Example 51, (3R)-3-(4-{4-[(8-{1-[6-(2-hydroxyphenyl)pyridazin-4-yl]-4-phenylpiperidine-4-carbonyl}-3,8-diazabicyclo[4.2.0]octan-3-yl)methyl]piperidin-1-yl}phenyl)piperidine-2,6-dione], in assay [1], the Dmax is 26.7% and the “Fold Selectivity SMARCA4/2” value was 1. Moreover, the Dmax in assay [2] is 0.85%.
